Results taken from patent US9518018B2, “3-alkoxy, thioalkyl and amino-4-amino-6-(substituted)picolinates and their use as herbicides” (Dow AgroSciences LLC, priority 2011, dated 2016).

System: desired test plant species
Assay: Foliar-applied postemergence herbicidal activity in direct seeded rice (Table 6)
Assay type: in vivo
Details: 21 DAA
Text: Seeds or nutlets of the desired test plant species were planted in a soil matrix prepared by mixing a loam soil (43 percent silt, 19 percent clay, and 38 percent sand, with a pH of about 8.1 and an organic matter content of about 1.5 percent) and river sand in an 80 to 20 ratio. The soil matrix was contained in plastic pots with a surface area of 139.7 cm^2. When required to ensure good germination and healthy plants, a fungicide treatment and/or other chemical or physical treatment was applied. The plants were grown for 10-17 d in a greenhouse with an approximate 14-h photoperiod which was maintained at about 29° C. during the day and 26° C. during the night. Nutrients and water were added on a regular basis and supplemental lighting was provided with overhead metal halide 1000-Watt lamps as necessary. The plants were employed for testing when they reached the second or third true leaf stage. Treatments consisted of compounds 45, 34, and 66. Weighed amounts of technical compounds were placed in individual 25 mL glass vials and dissolved in 8 mL of 97:3 v/v acetone-DMSO to obtain stock solutions. […] The spray application solutions were prepared by removing 4 mL of the stock solution and diluting with 4 mL of 97:3 v/v acetone-DMSO and continued serial dilution to obtain 1⁄2×, 1⁄4×, 1⁄8×, and 1/16× rates of the high rate. Spray solutions were diluted to the appropriate final concentrations with the addition of 8 mL of an aqueous mixture of 1.875% (v/v) Agri-dex crop oil concentrate. The final 12-mL spray solutions each contained 1.25% (v/v) Agri-dex crop oil concentrate, 32.3% acetone, and 1.0% DMSO. Compound requirements are based upon a 12 mL application volume at a rate of 187 L/ha. Spray solutions were applied to the plant material with an overhead Mandel track sprayer equipped with […] nozzles calibrated to deliver 187 L/ha over an application area of 0.503 square meters (m^2) at a spray height of 18 inches ([…]) above average plant canopy height. Control plants were sprayed in the same manner with the solvent blank. The treated plants and control plants were placed in a greenhouse as described above and watered by sub-irrigation to prevent wash-off of the test compounds. After approximately 3 weeks, the condition of the test plants, compared with that of the untreated plants, was determined visually and scored on a scale of 0 to 100 percent where 0 corresponds to no injury and 100 corresponds to complete kill. By applying the well-accepted probit analysis as described by J. Berkson in Journal of the […], 48, 565 (1953) and by D. Finney in “Probit Analysis” Cambridge University Press (1952) or by plotting the mean data and fitting a logarithmic curve to the portion of the data where there was a dose response using Microsoft Excel®, the above data can be used to calculate GR50 and GR90 values, which are defined as growth reduction factors that correspond to the effective dose of herbicide required to kill or control 50 percent or 90 percent, respectively, of a target plant.

COc1c(C(=O)O)nc(-c2ccc(Cl)c(OC)c2F)c(F)c1N [Compound 45, 4-amino-6-(4-chloro-2-fluoro-3-methoxyphenyl)-5-fluoro-3-methoxypicolinic acid]
Mean Visual Injury (%)-21 Days After Application AESSE (AESSE (Aeschynomene sensitiva, sensitive jointvetch), 4.38 g ae/ha): 100%
Mean Visual Injury (%)-21 Days After Application AESSE (AESSE (Aeschynomene sensitiva, sensitive jointvetch), 8.75 g ae/ha): 100%
Mean Visual Injury (%)-21 Days After Application AESSE (AESSE (Aeschynomene sensitiva, sensitive jointvetch), 17.5 g ae/ha): 100%
Mean Visual Injury (%)-21 Days After Application AESSE (AESSE (Aeschynomene sensitiva, sensitive jointvetch), 35 g ae/ha): 100%
Mean Visual Injury (%)-21 Days After Application AESSE (AESSE (Aeschynomene sensitiva, sensitive jointvetch), 70 g ae/ha): 100%
GR50 AESSE (AESSE (Aeschynomene sensitiva, sensitive jointvetch), dose to kill or control 50 percent): <4.38 g ae/ha
GR90 AESSE (AESSE (Aeschynomene sensitiva, sensitive jointvetch), dose to kill or control 90 percent): <4.38 g ae/ha
Mean Visual Injury (%)-21 Days After Application BRAPP (BRAPP (Brachiaria platyphylla, broadleaf signalgrass), 4.38 g ae/ha): 72%
Mean Visual Injury (%)-21 Days After Application BRAPP (BRAPP (Brachiaria platyphylla, broadleaf signalgrass), 8.75 g ae/ha): 80%
Mean Visual Injury (%)-21 Days After Application BRAPP (BRAPP (Brachiaria platyphylla, broadleaf signalgrass), 17.5 g ae/ha): 95%
Mean Visual Injury (%)-21 Days After Application BRAPP (BRAPP (Brachiaria platyphylla, broadleaf signalgrass), 35 g ae/ha): 95%
Mean Visual Injury (%)-21 Days After Application BRAPP (BRAPP (Brachiaria platyphylla, broadleaf signalgrass), 70 g ae/ha): 98%
GR50 BRAPP (BRAPP (Brachiaria platyphylla, broadleaf signalgrass), dose to kill or control 50 percent): <4.38 g ae/ha
GR90 BRAPP (BRAPP (Brachiaria platyphylla, broadleaf signalgrass), dose to kill or control 90 percent): 22.0 g ae/ha
Mean Visual Injury (%)-21 Days After Application CYPDI (CYPDI (Cyperus difformis, small-flower flatsedge), 4.38 g ae/ha): 75%
Mean Visual Injury (%)-21 Days After Application CYPDI (CYPDI (Cyperus difformis, small-flower flatsedge), 8.75 g ae/ha): 97%
Mean Visual Injury (%)-21 Days After Application CYPDI (CYPDI (Cyperus difformis, small-flower flatsedge), 17.5 g ae/ha): 98%
Mean Visual Injury (%)-21 Days After Application CYPDI (CYPDI (Cyperus difformis, small-flower flatsedge), 35 g ae/ha): 100%
Mean Visual Injury (%)-21 Days After Application CYPDI (CYPDI (Cyperus difformis, small-flower flatsedge), 70 g ae/ha): 100%
GR50 CYPDI (CYPDI (Cyperus difformis, small-flower flatsedge), dose to kill or control 50 percent): <4.38 g ae/ha
GR90 CYPDI (CYPDI (Cyperus difformis, small-flower flatsedge), dose to kill or control 90 percent): 8.8 g ae/ha
Mean Visual Injury (%)-21 Days After Application CYPES (CYPES (Cyperus esculentus, yellow nutsedge), 4.38 g ae/ha): 73%
Mean Visual Injury (%)-21 Days After Application CYPES (CYPES (Cyperus esculentus, yellow nutsedge), 8.75 g ae/ha): 78%
Mean Visual Injury (%)-21 Days After Application CYPES (CYPES (Cyperus esculentus, yellow nutsedge), 17.5 g ae/ha): 85%
Mean Visual Injury (%)-21 Days After Application CYPES (CYPES (Cyperus esculentus, yellow nutsedge), 35 g ae/ha): 99%
Mean Visual Injury (%)-21 Days After Application CYPES (CYPES (Cyperus esculentus, yellow nutsedge), 70 g ae/ha): 95%
GR50 CYPES (CYPES (Cyperus esculentus, yellow nutsedge), dose to kill or control 50 percent): <4.38 g ae/ha
GR90 CYPES (CYPES (Cyperus esculentus, yellow nutsedge), dose to kill or control 90 percent): 27.1 g ae/ha
Mean Visual Injury (%)-21 Days After Application CYPIR (CYPIR (Cyperus iria, rice flatsedge), 4.38 g ae/ha): 95%
Mean Visual Injury (%)-21 Days After Application CYPIR (CYPIR (Cyperus iria, rice flatsedge), 8.75 g ae/ha): 97%
Mean Visual Injury (%)-21 Days After Application CYPIR (CYPIR (Cyperus iria, rice flatsedge), 17.5 g ae/ha): 100%
Mean Visual Injury (%)-21 Days After Application CYPIR (CYPIR (Cyperus iria, rice flatsedge), 35 g ae/ha): 100%
Mean Visual Injury (%)-21 Days After Application CYPIR (CYPIR (Cyperus iria, rice flatsedge), 70 g ae/ha): 100%
GR50 CYPIR (CYPIR (Cyperus iria, rice flatsedge), dose to kill or control 50 percent): <4.38 g ae/ha
GR90 CYPIR (CYPIR (Cyperus iria, rice flatsedge), dose to kill or control 90 percent): <4.38 g ae/ha
Mean Visual Injury (%)-21 Days After Application ECHCG (ECHCG (Echinochloa crus-galli, barnyardgrass), 4.38 g ae/ha): 92%
Mean Visual Injury (%)-21 Days After Application ECHCG (ECHCG (Echinochloa crus-galli, barnyardgrass), 8.75 g ae/ha): 92%
Mean Visual Injury (%)-21 Days After Application ECHCG (ECHCG (Echinochloa crus-galli, barnyardgrass), 17.5 g ae/ha): 95%
Mean Visual Injury (%)-21 Days After Application ECHCG (ECHCG (Echinochloa crus-galli, barnyardgrass), 35 g ae/ha): 98%
Mean Visual Injury (%)-21 Days After Application ECHCG (ECHCG (Echinochloa crus-galli, barnyardgrass), 70 g ae/ha): 100%
GR50 ECHCG (ECHCG (Echinochloa crus-galli, barnyardgrass), dose to kill or control 50 percent): <4.38 g ae/ha
GR90 ECHCG (ECHCG (Echinochloa crus-galli, barnyardgrass), dose to kill or control 90 percent): <4.38 g ae/ha
Mean Visual Injury (%)-21 Days After Application ECHCO (ECHCO (Echinochloa colonum, junglerice), 4.38 g ae/ha): 80%
Mean Visual Injury (%)-21 Days After Application ECHCO (ECHCO (Echinochloa colonum, junglerice), 8.75 g ae/ha): 88%
Mean Visual Injury (%)-21 Days After Application ECHCO (ECHCO (Echinochloa colonum, junglerice), 17.5 g ae/ha): 95%
Mean Visual Injury (%)-21 Days After Application ECHCO (ECHCO (Echinochloa colonum, junglerice), 35 g ae/ha): 98%
Mean Visual Injury (%)-21 Days After Application ECHCO (ECHCO (Echinochloa colonum, junglerice), 70 g ae/ha): 100%
GR50 ECHCO (ECHCO (Echinochloa colonum, junglerice), dose to kill or control 50 percent): <4.38 g ae/ha
GR90 ECHCO (ECHCO (Echinochloa colonum, junglerice), dose to kill or control 90 percent): 12.9 g ae/ha
Mean Visual Injury (%)-21 Days After Application LEFCH (LEFCH (Leptochloa chinensis, Chinese sprangletop), 4.38 g ae/ha): 3%
Mean Visual Injury (%)-21 Days After Application LEFCH (LEFCH (Leptochloa chinensis, Chinese sprangletop), 8.75 g ae/ha): 0%
Mean Visual Injury (%)-21 Days After Application LEFCH (LEFCH (Leptochloa chinensis, Chinese sprangletop), 17.5 g ae/ha): 20%
Mean Visual Injury (%)-21 Days After Application LEFCH (LEFCH (Leptochloa chinensis, Chinese sprangletop), 35 g ae/ha): 42%
Mean Visual Injury (%)-21 Days After Application LEFCH (LEFCH (Leptochloa chinensis, Chinese sprangletop), 70 g ae/ha): 60%
GR50 LEFCH (LEFCH (Leptochloa chinensis, Chinese sprangletop), dose to kill or control 50 percent): 53.5 g ae/ha
GR90 LEFCH (LEFCH (Leptochloa chinensis, Chinese sprangletop), dose to kill or control 90 percent): >70 g ae/ha
Mean Visual Injury (%)-21 Days After Application ORYSA ‘Clearfield 171’ (ORYSA (Oryza sativa ‘Clearfield 171’, rice), 4.38 g ae/ha): 0%
Mean Visual Injury (%)-21 Days After Application ORYSA ‘Clearfield 171’ (ORYSA (Oryza sativa ‘Clearfield 171’, rice), 8.75 g ae/ha): 12%
Mean Visual Injury (%)-21 Days After Application ORYSA ‘Clearfield 171’ (ORYSA (Oryza sativa ‘Clearfield 171’, rice), 17.5 g ae/ha): 15%
Mean Visual Injury (%)-21 Days After Application ORYSA ‘Clearfield 171’ (ORYSA (Oryza sativa ‘Clearfield 171’, rice), 35 g ae/ha): 35%
Mean Visual Injury (%)-21 Days After Application ORYSA ‘Clearfield 171’ (ORYSA (Oryza sativa ‘Clearfield 171’, rice), 70 g ae/ha): 47%
GR50 ORYSA ‘Clearfield 171’ (ORYSA (Oryza sativa ‘Clearfield 171’, rice), dose to kill or control 50 percent): >70 g ae/ha
GR90 ORYSA ‘Clearfield 171’ (ORYSA (Oryza sativa ‘Clearfield 171’, rice), dose to kill or control 90 percent): >70 g ae/ha
Mean Visual Injury (%)-21 Days After Application ORYSA ‘Wells’ (ORYSA (Oryza sativa ‘Wells’, rice), 4.38 g ae/ha): 0%
Mean Visual Injury (%)-21 Days After Application ORYSA ‘Wells’ (ORYSA (Oryza sativa ‘Wells’, rice), 8.75 g ae/ha): 0%
Mean Visual Injury (%)-21 Days After Application ORYSA ‘Wells’ (ORYSA (Oryza sativa ‘Wells’, rice), 17.5 g ae/ha): 0%
Mean Visual Injury (%)-21 Days After Application ORYSA ‘Wells’ (ORYSA (Oryza sativa ‘Wells’, rice), 35 g ae/ha): 10%
Mean Visual Injury (%)-21 Days After Application ORYSA ‘Wells’ (ORYSA (Oryza sativa ‘Wells’, rice), 70 g ae/ha): 23%
GR50 ORYSA ‘Wells’ (ORYSA (Oryza sativa ‘Wells’, rice), dose to kill or control 50 percent): >70 g ae/ha
GR90 ORYSA ‘Wells’ (ORYSA (Oryza sativa ‘Wells’, rice), dose to kill or control 90 percent): >70 g ae/ha
Mean Visual Injury (%)-21 Days After Application SCPJU (SCPJU (Scirpus juncoides, Japanese bulrush), 4.38 g ae/ha): 72%
Mean Visual Injury (%)-21 Days After Application SCPJU (SCPJU (Scirpus juncoides, Japanese bulrush), 8.75 g ae/ha): 100%
Mean Visual Injury (%)-21 Days After Application SCPJU (SCPJU (Scirpus juncoides, Japanese bulrush), 17.5 g ae/ha): 100%
Mean Visual Injury (%)-21 Days After Application SCPJU (SCPJU (Scirpus juncoides, Japanese bulrush), 35 g ae/ha): 100%
Mean Visual Injury (%)-21 Days After Application SCPJU (SCPJU (Scirpus juncoides, Japanese bulrush), 70 g ae/ha): 100%
GR50 SCPJU (SCPJU (Scirpus juncoides, Japanese bulrush), dose to kill or control 50 percent): <4.38 g ae/ha
GR90 SCPJU (SCPJU (Scirpus juncoides, Japanese bulrush), dose to kill or control 90 percent): 6.9 g ae/ha
Mean Visual Injury (%)-21 Days After Application SEBEX (SEBEX (Sesbania exaltata, hemp sesbania), 4.38 g ae/ha): 100%
Mean Visual Injury (%)-21 Days After Application SEBEX (SEBEX (Sesbania exaltata, hemp sesbania), 8.75 g ae/ha): 100%
Mean Visual Injury (%)-21 Days After Application SEBEX (SEBEX (Sesbania exaltata, hemp sesbania), 17.5 g ae/ha): 100%
Mean Visual Injury (%)-21 Days After Application SEBEX (SEBEX (Sesbania exaltata, hemp sesbania), 35 g ae/ha): 100%
Mean Visual Injury (%)-21 Days After Application SEBEX (SEBEX (Sesbania exaltata, hemp sesbania), 70 g ae/ha): 100%
GR50 SEBEX (SEBEX (Sesbania exaltata, hemp sesbania), dose to kill or control 50 percent): <4.38 g ae/ha
GR90 SEBEX (SEBEX (Sesbania exaltata, hemp sesbania), dose to kill or control 90 percent): <4.38 g ae/ha
